What was measured:
Assay type in all cases: cell-based
[1] = biological target: T1, human muscarinic M2 receptor (Homo sapiens, UniProt P08172); test: Alphascreen Surefire phospho-ERK1/2 functional assay, M2; conditions: for EC50 / pEC50 M2 / % Emax cf. ACh (M2): CHO cells stably expressing human M2; for EC50 / pEC50 M2: agonist 5 min, 37° C.; for EC50: read-out: pEC50 M2 (converted); for Emax: CHO, read-out: % Emax cf. ACh (M2); for % Emax cf. ACh (M2): relative to ACh
T1 sequence (P08172 1-466): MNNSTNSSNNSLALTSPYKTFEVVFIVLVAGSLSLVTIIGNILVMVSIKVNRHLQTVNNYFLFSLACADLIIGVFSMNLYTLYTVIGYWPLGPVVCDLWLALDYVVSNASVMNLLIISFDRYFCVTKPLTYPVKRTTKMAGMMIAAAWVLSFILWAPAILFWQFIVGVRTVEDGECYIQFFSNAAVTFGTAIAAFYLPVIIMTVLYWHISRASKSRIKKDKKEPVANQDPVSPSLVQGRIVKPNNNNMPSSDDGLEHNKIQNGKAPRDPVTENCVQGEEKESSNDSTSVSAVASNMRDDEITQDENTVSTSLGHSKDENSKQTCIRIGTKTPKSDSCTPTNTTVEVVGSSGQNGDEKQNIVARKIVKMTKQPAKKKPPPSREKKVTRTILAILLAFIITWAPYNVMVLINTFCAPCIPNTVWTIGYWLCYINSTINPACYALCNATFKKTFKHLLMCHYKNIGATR
Method: (§1) ERK1/2 phosphorylation is a downstream consequence of both Gq/11 and Gi/o protein coupled receptor activation, making it highly suitable for the assessment of M1, M3 (Gq/11 coupled) and M2, M4 receptors (Gi/o coupled), rather than using different assay formats for different receptor subtypes. CHO cells stably expressing the human muscarinic M1, M2, M3 or M4 receptor were plated (25K/well) onto 96-well tissue culture plates in MEM-alpha+10% dialysed FBS. Once adhered, cells were serum-starved overnight. Agonist stimulation was performed by the addition of 5 μL agonist to the cells for 5 min (37° C.). Media was removed and 50 μL of lysis buffer added. After 15 min, a 4 μL sample was transferred to 384-well plate and 7 μL of detection mixture added.

[2] = biological target: T2, human muscarinic M4 receptor (Homo sapiens, UniProt P08173); test: Alphascreen Surefire phospho-ERK1/2 functional assay, M4; conditions: for EC50 / % Emax cf. ACh (M4) / pEC50 M4: CHO cells stably expressing human M4; for EC50 / pEC50 M4: agonist 5 min, 37° C.; for EC50: read-out: pEC50 M4 (converted); for Emax: CHO, read-out: % Emax cf. ACh (M4), CHO cells stably expressing human M4; for Emax / % Emax cf. ACh (M4): relative to ACh
T2 construct: expressed in transfected cells
T2 sequence (P08173 1-479): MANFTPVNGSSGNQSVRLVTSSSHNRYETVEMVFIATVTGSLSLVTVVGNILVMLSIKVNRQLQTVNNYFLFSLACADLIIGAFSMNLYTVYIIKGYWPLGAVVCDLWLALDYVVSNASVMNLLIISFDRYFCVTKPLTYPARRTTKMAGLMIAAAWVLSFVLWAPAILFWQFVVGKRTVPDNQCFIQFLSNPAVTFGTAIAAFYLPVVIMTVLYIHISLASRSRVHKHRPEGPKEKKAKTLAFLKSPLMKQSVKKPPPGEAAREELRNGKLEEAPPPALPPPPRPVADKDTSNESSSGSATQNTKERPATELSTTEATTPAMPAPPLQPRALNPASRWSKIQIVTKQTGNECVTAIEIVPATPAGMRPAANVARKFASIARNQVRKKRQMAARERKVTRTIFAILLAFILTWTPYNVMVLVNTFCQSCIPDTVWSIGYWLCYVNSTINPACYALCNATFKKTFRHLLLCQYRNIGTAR
Method: as §1

[3] = biological target: T3, human muscarinic M1 receptor (Homo sapiens, UniProt P11229); test: Alphascreen Surefire phospho-ERK1/2 functional assay, M1; conditions: for EC50 / % Emax cf. ACh (M1) / pEC50 M1: CHO cells stably expressing human M1; for EC50 / pEC50 M1: agonist 5 min, 37° C.; for EC50: read-out: pEC50 M1 (converted); for Emax: CHO, read-out: % Emax cf. ACh (M1), CHO cells stably expressing human M1; for Emax / % Emax cf. ACh (M1): relative to ACh
T3 sequence (P11229 1-460): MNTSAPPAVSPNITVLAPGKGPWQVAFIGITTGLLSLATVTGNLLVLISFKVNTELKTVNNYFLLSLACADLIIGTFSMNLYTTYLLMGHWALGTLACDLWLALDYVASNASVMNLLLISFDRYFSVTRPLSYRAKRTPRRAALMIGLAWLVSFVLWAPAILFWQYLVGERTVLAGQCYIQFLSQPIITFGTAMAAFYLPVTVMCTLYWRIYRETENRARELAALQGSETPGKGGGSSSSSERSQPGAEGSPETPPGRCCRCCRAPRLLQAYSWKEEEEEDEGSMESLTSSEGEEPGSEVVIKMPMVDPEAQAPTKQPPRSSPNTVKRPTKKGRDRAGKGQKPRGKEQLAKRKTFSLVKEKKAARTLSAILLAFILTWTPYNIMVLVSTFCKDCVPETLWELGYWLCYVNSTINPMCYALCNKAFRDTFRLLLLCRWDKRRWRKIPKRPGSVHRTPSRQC
Method: as §1

[4] = biological target: T4, human muscarinic M3 receptor (Homo sapiens, UniProt P20309); test: Alphascreen Surefire phospho-ERK1/2 functional assay, M3; conditions: for EC50 / pEC50 M3 / % Emax cf. ACh (M3): CHO cells stably expressing human M3; for EC50 / pEC50 M3: agonist 5 min, 37° C.; for EC50: read-out: pEC50 M3 (converted); for Emax: CHO, read-out: % Emax cf. ACh (M3); for % Emax cf. ACh (M3): relative to ACh
T4 construct: expressed in transfected cells
Method: as §1

T4 sequence (P20309 whole entry): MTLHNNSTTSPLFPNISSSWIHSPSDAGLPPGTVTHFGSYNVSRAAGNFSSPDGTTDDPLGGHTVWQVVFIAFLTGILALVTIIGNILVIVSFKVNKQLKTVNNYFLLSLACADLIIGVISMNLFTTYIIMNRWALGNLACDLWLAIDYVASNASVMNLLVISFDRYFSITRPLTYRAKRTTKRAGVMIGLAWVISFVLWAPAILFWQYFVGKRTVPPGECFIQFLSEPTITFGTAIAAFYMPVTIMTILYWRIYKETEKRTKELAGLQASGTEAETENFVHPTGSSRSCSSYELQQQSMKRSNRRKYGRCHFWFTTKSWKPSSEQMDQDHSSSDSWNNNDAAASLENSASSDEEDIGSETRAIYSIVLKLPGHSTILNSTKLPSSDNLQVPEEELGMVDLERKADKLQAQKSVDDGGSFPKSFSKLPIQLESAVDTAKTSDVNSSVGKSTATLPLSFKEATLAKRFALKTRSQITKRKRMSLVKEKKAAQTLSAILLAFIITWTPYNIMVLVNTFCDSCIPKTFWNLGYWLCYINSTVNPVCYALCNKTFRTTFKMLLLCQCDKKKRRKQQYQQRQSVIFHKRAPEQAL

EC50 [1]	Emax [1]	EC50 [2]	Emax [2]	EC50 [3]	Emax [3]	EC50 [4]	Emax [4]	% Emax cf. ACh (M4) [2]	% Emax cf. ACh (M1) [3]	pEC50 M2 [1]	% Emax cf. ACh (M2) [1]	pEC50 M4 [2]	pEC50 M1 [3]	pEC50 M3 [4]	% Emax cf. ACh (M3) [4]	SMILES
> 20 µM	36%	87.1 nM	83%	646 nM	43%	> 20 µM	2%									CCOC(=O)N1CCC2(CC(N3C[C@@H]4[C@H](C3)[C@H]4c3ccnn3C)C2)C1 (single isomer, unassigned) [2-29 Isomer 2]
> 20 µM	24%	151 nM		324 nM		> 20 µM	4%	48%	65%							CCOC(=O)N1CCC2(CC(N3CC4C(C3)C4C(CC)=NOC)C2)C1 (single isomer, unassigned) [2-25 Isomer 4]
> 20 µM	16%	37.2 nM	95%	13.2 nM	93%	> 20 µM	35%									CCOC(=O)N1CCC2(CC(N3CC4C(C3)C4C(=O)N3CCC34CC4)C2)C1 (single isomer, unassigned) [2-19 Isomer 2]
> 20 µM	7%	77.6 nM	86%	> 20000 nM	22%	> 20 µM	0%									CCOC(=O)C1C2CN(C3CC4(CCN(C(=O)OCC)C4)C3)CC21 (mixture of isomers) [2-1 Mixture of isomers]
								62%	113%	< 4.70	25%	6.04	7.15	< 4.70	10%	CCOC(=O)N1C2COCC1CC(N1CC3C(C1)C3C(=O)N(CC)CC)C2 (single isomer, unassigned; isomer 2) [10-2 Isomer 2]
> 20 µM	7%	53.7 nM		64.6 nM		> 20 µM	5%	51%	104%							CCOC(=O)N1CCC2(CC(N3CC4C(C3)C4OC(C)c3ccccc3)C2)C1 (single isomer, unassigned) [2-28 Isomer 2]
> 20 µM	12%	316 nM	73%	9330 nM	115%	> 20 µM	6%									CCOC(=O)[C@H]1[C@@H]2CN(C3CC4(C3)CN(C(=O)OCC)C4)C[C@@H]21 [Example 1-1, ethyl 6-[(1R,5S,6r)-6-(ethoxycarbonyl)-3-azabicyclo[3.1.0]hex-3-yl]-2-azaspiro[3.3]heptane-2-carboxylate]
								64%	104%	< 4.70	24%	5.95	6.51	< 4.70	68%	CCOC(=O)N1C2COCC1CC(N1CC3C(C1)C3C(=O)N1CCOCC1)C2 (single isomer, unassigned; isomer 1) [10-13 Isomer 1]
								59%	101%	< 4.70	24%	4.99	6.43	< 4.70	22%	CCOC(=O)N1C2COCC1CC(N1CC3C(C1)C3C(=O)N1CCOCC1)C2 (single isomer, unassigned; isomer 2) [10-13 Isomer 2]

SMILES	EC50 [1]	Emax [1]	EC50 [2]	Emax [2]	EC50 [3]	Emax [3]	EC50 [4]	Emax [4]	% Emax cf. ACh (M4) [2]	% Emax cf. ACh (M1) [3]	pEC50 M2 [1]	% Emax cf. ACh (M2) [1]	pEC50 M4 [2]	pEC50 M1 [3]	pEC50 M3 [4]	% Emax cf. ACh (M3) [4]
CCOC(=O)N1C2CCCC1CC(N1CC3C(C1)C3C(=O)N(C)CC)C2 (single isomer, unassigned; isomer 1) [9-1 Isomer 1]									57%	93%	< 4.70	19%	6.06	7.04	< 4.70	21%
